This note sets out measurements from PMC10721329, “Quisinostat is a brain-penetrant radiosensitizer in glioblastoma” (JCI Insight, 2023).

Where “and” joins values, the source holds several entries; their conditions need not be identical. Identical values can stand only once. Like-named read-outs stand apart in the source and are kept apart here.

Series [1] is described as follows: Total QST levels in plasma and flank tumors (LC-MS/MS). Format: in vivo. To be noted: athymic nude, mouse, 10 mg/kg. How it is done:
QST concentrations in specimens were measured using reverse-phase LC on the AB SCIEX QTRAP6500+ LC-MS/MS system by operating electrospray in the positive ion mode. For liquid chromatographic separation, gradient elution was performed using a Phenomenex Kinetex F5 100 Å column (100 × 2.1 mm, 2.6 μm). The initial composition of the mobile phase was 70% phase A (0.1% formic acid in water) and 30% phase B (0.1% formic acid in 1:1 acetonitrile/methanol) with a 0.35 mL/min flow rate. Gradient elution was achieved as follows: mobile phase (B) was maintained at 30% from 0 to 0.3 minutes, increased to 95% from 0.3 to 0.8 minutes, maintained at 95% from 0.8 to 2.5 minutes, and decreased to 30% from 2.5 to 2.8 minutes. The total run time was 3.5 minutes. The internal standard used in this study was D8-infigratinib. The retention times for QST and D8-infigratinib were 1.6 and 1.8 minutes, respectively. Mass-to-charge ratio transitions were as follows: 395.20 → 144.00 (QST) and 568.08 → 321.00 (D8-infigratinib). LC-MS/MS analysis was performed using an Analyst 1.7 Chromatographic Data System. See Supplemental Methods for detailed PK experiments. […]
treated with 2 Gy of ionizing radiation on MWF for a total 6 Gy (3 doses). Ionizing radiation was administered with the RS2000 series biological research irradiator (Rad Source Technologies).
Treatment of Flank-Implanted Mice with QST and/or Radiation
Implanted flank tumors were allowed to grow until the tumor size reached 100 mm3 volume. Mice were randomized into groups before treatment and underwent treatment on MWF for the entire duration of the experiment until the tumor volumes exceeded 2000 mm3. Treatment groups included vehicle (50% PEG-300), QST alone (10 mg/kg), flank IR treatment with vehicle (2 Gy), and flank IR treatment (2 Gy) with QST (10 mg/kg). For mice receiving IR treatment with or without QST, mice were treated with 2 Gy on MWF for a total 6 Gy during the first week of treatment. QST was administered to mice through intraperitoneal injections 2 hours before flank tumor radiation treatment. Upon completion of the radiation regimen, IR-treated mice subsequently received QST or vehicle alone for the rest of the experiment. Tumor growth and treatment response were monitored by manually measuring the tumor area twice per week starting at 13 days after implantation. Upon reaching the tumor volume threshold (2000 mm3), mice were sacrificed, and plasma and tissue samples were harvested for PD and PK analyses 2 hours after treatment with a final dose of QST (10 mg/kg). […]
Calibration Standards and Quality Control Samples
Stock solutions of standard (1 mM QST) and IS (250 µM D8-infigratinib) were prepared in acetonitrile. Working solutions for calibration curve standards and quality controls (QCs) were prepared by dilutions with a 40% methanol mixture aqueous solution. The IS precipitation solution (10 nM) was prepared from the IS stock solutions by dilution with methanol. Calibration standards and batch qualifying QCs were freshly spiked for every batch. For sample analysis in human and mouse matrices, calibration standards were prepared in bulk by spiking appropriate amounts of working solutions into blank human plasma, used as a surrogate matrix due to the instability of QST in mouse plasma. For sample analysis in neural stem cell media and cell lysate, calibration standards were prepared in bulk by spiking appropriate amounts of working solutions into neural stem cell media. QC samples were prepared in bulk by spiking appropriate amounts of working solutions into blank mouse plasma or cell media. Preparation of calibration standards and QC samples was performed at 4 °C. Final concentrations range of the calibration standards were 1–1000 nM in human plasma or neural stem cell media. Three QC levels (low, medium, and high) were used during all sample analyses. The concentrations of QC samples in various matrices were 3 nM (low QC), 22 nM (medium QC), and 800 nM (high QC). All stock […]

A further series concerns orthotopic GB126 tumors. Nature of the series: RT-qPCR of neuronal genes in GB126 tumors. Format: in vivo, athymic nude mice. To be noted: relative to Vehicle mouse 1 = 1, individual mice. Here is the method:
Reverse Transcription Quantitative Polymerase Chain Reaction
Total RNA was extracted from orthotopic tumors by using the RNeasy Mini Kit (Qiagen) in accordance with the manufacturer’s instructions. RNA was quantified on a NanoDrop Spectrophotometer ([…]), and 1 μg of total RNA was used for complementary DNA synthesis by using the SuperScript VILO kit (Life Technologies). Quantitative polymerase chain reaction was performed using inventoried TaqMan assays for respective target genes and housekeeping control genes (18S) on the QuantStudio 6 Flex Real -Time PCR System (Life Technologies).
Fold change in gene expression was analyzed using the delta delta Ct method.

In the case of `Cn1cc(CNCC2CCN(c3ncc(C(=O)NO)cn3)CC2)c2ccccc21` [QST, quisinostat], the concentration at 2 h is 501 nM in series [1] (flank tumor, intraperitoneal, Combination (QST+IR) cohort, read-out: [QST] total, flank tumor, Mean); 479 nM in series [1] (flank tumor, intraperitoneal, QST monotherapy cohort, read-out: [QST] total, flank tumor, Mean); ~433 nM in series [1] (flank tumor, ip, QST- and combination-treated mice, 10 mg/kg IP, 2 hours after final dose, read-out: mean total QST concentration in flank tumors); 276 nM in series [1] (plasma, intraperitoneal, Combination (QST+IR) cohort, read-out: [QST] total, plasma, Mean); 250 nM in series [1] (plasma, intraperitoneal, QST monotherapy cohort, read-out: [QST] total, plasma, Mean); ~300 nM in series [1] (plasma, ip, QST- and combination-treated mice, 10 mg/kg IP, 2 hours after final dose, read-out: mean total QST concentration in plasma). For the same molecule, the “qPCR CECR2 expression” value is 90.297 and 227.304 and 107.431 with orthotopic GB126 tumors (Combo (QST + IR)); 38.4564 and 79.55 and 112.554 in the series on orthotopic GB126 tumors (QST). In addition, the “qPCR GABRA2 expression” value was 62.6009 and 92.8255 and 56.6887 in the series on orthotopic GB126 tumors (Combo (QST + IR)); 1.543 and 82.6227 and 31.8541 in the series on orthotopic GB126 tumors (QST). The “qPCR SCN3A expression” value in the series with orthotopic GB126 tumors (Combo (QST + IR)) was 28.0147 and 63.295 and 75.3722; in the series with orthotopic GB126 tumors (QST), 6.113 and 76.4987 and 9.293. Further, the “qPCR BDNF expression” value in the series on orthotopic GB126 tumors (QST + IR) is 14.0587 and 9.35 and 2.8459; in the series with orthotopic GB126 tumors (QST), 5.022 and 6.518 and 12.9199. Moreover, the “qPCR KCNQ3 expression” value with orthotopic GB126 tumors (QST + IR) was 9.67 and 10.8552 and 27.8625; in the series with orthotopic GB126 tumors (QST), 1.23 and 4.886 and 2.677. Further, the “qPCR NGFR expression” value with orthotopic GB126 tumors (QST + IR) was 3.525 and 9.249 and 10.5627; in the series on orthotopic GB126 tumors (QST), 13.22 and 5.955 and 12.7613.
